Where a name gives a salt, the structure may show the parent alone. Read-outs that look alike come from different tables or passages of the source. Marks after values point to notes of the source that are not given here.
Key:
[1] = logP by HPLC on reversed-phase columns (EEC directive 79/831 Annex V.A8); format: physicochemical; settings: for chromatographic logP: [b] LC-MS determination in the acidic range at pH 2.7, 0.1% aqueous formic acid and acetonitrile, read-out: log p
Method: Calibration was carried out using unbranched alkan-2-ones (having from 3 to 16 carbon atoms) with known logP values (the logP values were determined by the retention times using linear interpolation between two successive alkanones).

Phakopsora pachyrhizi = experiment: Phakopsora Test (soya beans)/Protective; format: in vivo; settings: protective, active compound concentration 100 ppm, evaluation 11 days after inoculation
Method: Phakopsora Test (soya beans)/Protective
One day after spraying, the plants are inoculated with an aqueous spore suspension of the soya bean rust pathogen (Phakopsora pachyrhizi). The plants are placed in a greenhouse at 20° C. and a rel. atmospheric humidity of 80%.
Evaluation is carried out 11 days after the inoculation.

Fusarium proliferatum = experiment: Production of Fumonisin FB1 by Fusarium proliferatum; format: cell-based; settings: 120 h, read-out: inhibition of fumonisin FB1 production
Method: Production of Fumonisin FB1 by Fusarium proliferatum
The compounds were tested in microtitre plates at 5 concentrations of from 0.08 μM to 50 μM in a fumonisin-inducing liquid medium (0.5 g of malt extract, 1 g of yeast extract, 1 g of bactopeptone, 20 g of fructose, 1 g of KH2PO4, 0.3 g of MgSO47 H2O, 0.3 g of KCl, 0.05 g of ZnSO47 H2O and 0.01 g of CuSO4×5 H2O per litre) with DMSO (0.5%). Inoculation was carried out using a concentrated spore suspension of Fusarium proliferatum at a final concentration of 2000 spores/ml.
The plate was incubated at 20° C. and high atmospheric humidity for 5 days.
At the beginning and after 5 days, the OD was measured at OD620 (repeated measurements: 3×3 measurements per well) to calculate the inhibition of growth.
After 5 days, a sample of the liquid medium was removed and diluted 1:1000 with 50% strength acetonitrile. The concentration of FB1 of the diluted samples was analysed by HPLC-MS/MS, and the measured values were used to calculate the inhibition of fumonisin FB1 production compared to an active compound-free control. […]

Sphaerotheca fuliginea = settings: cucumber, protective, active compound concentration 500 ppm, evaluation 7 days after inoculation
Method: Sphaerotheca Test (cucumber)/protective
1 day after the treatment, the plants are inoculated with a spore suspension of Sphaerotheca fuliginea. The plants are then placed in a greenhouse at a relative atmospheric humidity of 70% and a temperature of 23° C.
Evaluation is carried out 7 days after the inoculation.

CCN(C)C=Nc1cc(C)c(Oc2nc(Cc3ccc(Cl)cc3)ns2)cc1C.O=S(=O)(O)O [Example 1, N′-(4-{[3-(4-chlorobenzyl)-1,2,4-thiadiazol-5-yl]oxy}-2,5-dimethylphenyl)-N-ethyl-N-methylimidoformamidesulphate]
log p ([1]; pH 2.7): 1.88^[b]

Br.CCN(C)C=Nc1cc(C)c(Oc2nc(Cc3ccc(Cl)cc3)ns2)cc1C [Example 2, N′-(4-{[3-(4-chlorobenzyl)-1,2,4-thiadiazol-5-yl]oxy}-2,5-dimethylphenyl)-N-ethyl-N-methylimidoformamide hydrobromide]
chromatographic logP ([1]; reversed-phase HPLC column): 1.83 | efficacy (Phakopsora pachyrhizi): ≥ 80% | inhibition at 50 µM (Fusarium proliferatum): > 80%

CCN(C)C=Nc1cc(C)c(Oc2nc(Cc3ccc(Cl)cc3)ns2)cc1C [Example 3, N′-(4-{[3-(4-Chlorobenzyl)-1,2,4-thiadiazol-5-yl]oxy}-2,5-dimethylphenyl)-N-ethyl-N-methylimidoformamide hydrochloride (1:1)]
chromatographic logP [1]: 2.03

N′-(4-{[3-(4-chlorobenzyl)-1,2,4-thiadiazol-5-yl]oxy}-2,5-dimethylphenyl)-N-ethyl-N-methylimido-formamide-1,2-benzothiazol-3(2H)-one 1,1-dioxide [Example 4]
efficacy (Sphaerotheca fuliginea): ≥ 70%
